{
  "source": "paper PMC3027353",
  "about": "(Journal of nuclear medicine : official publication, Society …, 2010)",
  "key": {"TSPO [1]": {"molecular_target": "T1, TSPO (Rattus norvegicus, UniProt P16257)", "T1 sequence (P16257 whole entry)": "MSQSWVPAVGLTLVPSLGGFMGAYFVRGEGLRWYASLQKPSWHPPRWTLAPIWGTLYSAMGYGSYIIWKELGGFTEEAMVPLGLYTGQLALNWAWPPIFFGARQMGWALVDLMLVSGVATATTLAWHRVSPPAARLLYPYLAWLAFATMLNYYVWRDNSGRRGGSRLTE", "format": "in vivo", "conditions": "for K1/k2: 3-compartment, 4-rate constant model; for VT (total distribution volume): from graphical analysis, N = 4"}, "TSPO [2]": {"molecular_target": "T1, TSPO", "conditions": "in vivo"}, "[3]": {"assay": "HPLC radiometabolite analysis of arterial plasma after [^18F]PBR06 injection", "format": "in vivo, rat"}, "TSPO [4]": {"molecular_target": "T1, TSPO", "assay": "Radioligand displacement of [^3H]PK 11195 by PBR06 in C6 glioma cell lysate", "format": "binding", "conditions": "C6 glioma cell line homogenates/lysate; non-linear regression; triplicate"}, "TSPO [5]": {"molecular_target": "T1, TSPO", "conditions": "cited from earlier work"}},
  "note": "Like-named read-outs stand apart in the source and are kept apart here.",
  "data": [
    {"molecule": "COc1ccc(OC)c(CN(C(=O)C[18F])c2ccccc2Oc2ccccc2)c1", "note": "[[^18F]PBR06, ^18F-N-fluoroacetyl-N-(2,5-dimethoxybenzyl)-2-phenoxyaniline]", "values": [
      {"measurement": "K1/k2", "setting": "TSPO [1]; Brain, mean ± S.E., N = 3", "result": "6.164 ± 2.049", "unit": "mL/g"},
      {"measurement": "VT (total distribution volume)", "setting": "TSPO [1]; Brain, mean ± S.E.", "result": "13.07 ± 3.901", "unit": "mL/g"},
      {"measurement": "k3", "setting": "TSPO [1]; Brain, mean ± S.E., N = 3", "result": "0.0714 ± 0.0261", "unit": "min⁻¹"},
      {"measurement": "k4", "setting": "TSPO [1]; Brain, mean ± S.E., N = 3", "result": "0.00945 ± 0.005532", "unit": "min⁻¹"},
      {"measurement": "K1/k2", "setting": "TSPO [1]; Tumor, mean ± S.E., N = 3", "result": "5.947 ± 1.982", "unit": "mL/g"},
      {"measurement": "VT (total distribution volume)", "setting": "TSPO [1]; Tumor, mean ± S.E.", "result": "63.90 ± 3.400", "unit": "mL/g"},
      {"measurement": "k3", "setting": "TSPO [1]; Tumor, mean ± S.E., N = 3", "result": "0.3870 ± 0.1592", "unit": "min⁻¹"},
      {"measurement": "Plasma clearance", "setting": "TSPO [1]; after initial spike following tracer injection", "result": "rapidly cleared from plasma"},
      {"measurement": "Total radioactivity in tumor tissue relative to normal brain", "setting": "TSPO [1]; last 20 minutes of the 90 min PET scan, C6 glioma-bearing rats", "result": "three- to four-fold higher"},
      {"measurement": "Displaceable binding of [^18F]PBR06 in tumor", "setting": "TSPO [2]", "result": "approximately 75%"},
      {"measurement": "Tumor activity after PBR06 injection, as % of peak tumor uptake", "setting": "TSPO [2]", "result": "approximately 25%"},
      {"measurement": "Fraction of plasma radioactivity", "setting": "[3]; at 45 min after [^18F]PBR06, 15 min after cold PBR06 infusion", "result": 57, "unit": "%"},
      {"measurement": "Fraction of plasma radioactivity", "setting": "[3]; printed 'at 2.8 min' (2 min sample after [^18F]PBR06 injection)", "result": 75, "unit": "%"},
      {"measurement": "Fraction of plasma radioactivity", "setting": "[3]; printed 'at 30 min' (25 min sample after [^18F]PBR06 injection)", "result": 38, "unit": "%"}
    ]},
    {"molecule": "COc1ccc(OC)c(CN(C(=O)CF)c2ccccc2Oc2ccccc2)c1", "note": "[PBR06, N-fluoroacetyl-N-(2,5-dimethoxybenzyl)-2-phenoxyaniline]", "values": [
      {"measurement": "IC50, displacement of [^3H]PK 11195", "setting": "TSPO [4]", "result": "in the nanomolar range"}
    ]},
    {"molecule": "CN1C(=O)CN=C(c2ccc(Cl)cc2)c2cc(Cl)ccc21", "note": "[Ro5-4864]", "values": [
      {"measurement": "In vitro affinity for TSPO", "setting": "TSPO [5]", "result": "low nanomolar range"}
    ]},
    {"molecule": "CCC(C)N(C)C(=O)c1cc2ccccc2c(-c2ccccc2Cl)n1", "note": "(centres unmarked) [PK 11195]", "values": [
      {"measurement": "In vitro affinity for TSPO", "setting": "TSPO [5]", "result": "low nanomolar range"}
    ]}
  ]
}
